Among the data in PubChem BioAssay (NCI) are TGI values, retold here.

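Step 1: Grow cells in 96-well plates. Step 2: Expose to compound for 48 hours at 5 concentrations. Step 3: Interpolate endpoints linearly; if unreached, use highest concentration. The concentration for full growth arrest is given as TGI.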 A value given as a limit tells only on which side of the number the result lay.

One experiment deals with CCRF-CEM leukemia. Briefly: growth of human tumour cells (NCI), 48 h.
For the molecule `Oc1c(N2CCCCC2)cc(-c2cc(N3CCCCC3)c(O)c3ccccc23)c2ccccc12`, the TGI is greater than 100 µM.

`O=c1cc(Nc2cccc(O)c2)[nH]c(=O)[nH]1` showed a TGI greater than 100 µM.

Turning to `NCCOc1cccc(C2(N3CCCCC3)CCCCC2)c1`, the TGI turned out to be 35.8 µM.

`COC(=O)[C@@]12OC[C@]34C([C@@H](O)C1O)[C@@]1(C)CC(=O)C(OC(=O)CC(C)C(F)(F)F)=C(C)C1C[C@H]3OC(=O)[C@H](O)[C@H]42` (stereo partly drawn) yielded a TGI greater than 62.5 µM.

Regarding `CCCCCCCCCCCCCCCCCCNc1ccn(C2OC(COP(=O)(O)OCC3OC(n4ccc(N)nc4=O)C(O)C3O)C(O)C2O)c(=O)n1` (stereo not drawn), the TGI is greater than 100 µM.

The molecule `CCOc1cnc(C(O)(c2ccccc2)c2ccccc2)o1` returned a TGI greater than 100 µM.

The molecule `CC(=O)c1ccc(Nc2c3c(nc4ccccc24)CCCC3)cc1` came in with a TGI greater than 100 µM.

For the molecule `S=C1Cc2c(-c3ccccc3)cc(-c3cccc(Cl)c3)nc2-c2ccccc2N1`, the TGI stood at 30.5 µM.

`N#Cc1c(NC(=O)C(F)(F)F)sc2c3c(=O)c4ccccc4c(=O)c=3oc3ccccc3c12` returned a TGI of 12.5 µM.

`Cc1c(C)c2c(c(N)c1C#N)C(=O)N(Cc1ccc(S(N)(=O)=O)cc1)C2=O` showed a TGI greater than 100 µM.

Molecule `CN(NC1=NCCO1)c1ccc2ccccc2c1` returned a TGI of 49.5 µM.

For `COC(=O)/C=C/c1ccc(OP(=O)(O)O)c(OC)c1`, the TGI is greater than 100 µM.

Regarding `COc1cc2nc(Cl)nc(NS(=O)(=O)c3cc4ccccc4s3)c2cc1OC`, the TGI was determined as 33 µM.

The molecule `COC(=O)/C=C(\C(=O)OC)c1cc(C)c2cc(C(C)C)ccc(C)c1-2` gave a TGI greater than 100 µM.

The molecule `C[C@@H](CC(=O)OCc1ccccc1)OC1OC(COC(=O)C(C)(C)C)C(OC(=O)C(C)(C)C)C(OC(=O)C(C)(C)C)C1OC(=O)C(C)(C)C` (stereo partly drawn) came in with a TGI greater than 100 µM.

In turn, `CC(C)(C)OC(=O)N(CCCCNC(=O)C(F)(F)F)CCCNC(=O)C(F)(F)F` registered a TGI greater than 100 µM.

As for `C=C1CC[C@@H](CCC2CCC3(OC2)O[C@]2(O)CC[C@@]3(C)OC2(C)C)C(C)(C)[C@H]1C/C=C1\CCOC1=O` (stereo partly drawn), the TGI came to 83 µM.

The subject of a further experiment is SF-539 CNS. Briefly: growth of human tumour cells (NCI), 48 h.
In turn, `Oc1c(N2CCCCC2)cc(-c2cc(N3CCCCC3)c(O)c3ccccc23)c2ccccc12` displayed a TGI of 81.8 µM.

Molecule `O=c1cc(Nc2cccc(O)c2)[nH]c(=O)[nH]1` returned a TGI greater than 100 µM.

`NCCOc1cccc(C2(N3CCCCC3)CCCCC2)c1` registered a TGI of 32.3 µM.

For the molecule `COC(=O)[C@@]12OC[C@]34C([C@@H](O)C1O)[C@@]1(C)CC(=O)C(OC(=O)CC(C)C(F)(F)F)=C(C)C1C[C@H]3OC(=O)[C@H](O)[C@H]42` (stereo partly drawn), the TGI stood at 10.9 µM.

`CCCCCCCCCCCCCCCCCCNc1ccn(C2OC(COP(=O)(O)OCC3OC(n4ccc(N)nc4=O)C(O)C3O)C(O)C2O)c(=O)n1` (stereo not drawn): the TGI was greater than 100 µM.

The molecule `CCOc1cnc(C(O)(c2ccccc2)c2ccccc2)o1` returned a TGI greater than 100 µM.

Regarding `CC(=O)c1ccc(Nc2c3c(nc4ccccc24)CCCC3)cc1`, the TGI is greater than 100 µM.

In turn, `S=C1Cc2c(-c3ccccc3)cc(-c3cccc(Cl)c3)nc2-c2ccccc2N1` showed a TGI of 8.54 µM.

`N#Cc1c(NC(=O)C(F)(F)F)sc2c3c(=O)c4ccccc4c(=O)c=3oc3ccccc3c12` yielded a TGI of 32.1 µM.

As for `Cc1c(C)c2c(c(N)c1C#N)C(=O)N(Cc1ccc(S(N)(=O)=O)cc1)C2=O`, the TGI was greater than 60.1 µM.

In turn, `CN(NC1=NCCO1)c1ccc2ccccc2c1` yielded a TGI of 82.6 µM.

The molecule `COC(=O)/C=C/c1ccc(OP(=O)(O)O)c(OC)c1` came in with a TGI greater than 100 µM.

Turning to `COc1cc2nc(Cl)nc(NS(=O)(=O)c3cc4ccccc4s3)c2cc1OC`, the TGI is greater than 100 µM.

In turn, `COC(=O)/C=C(\C(=O)OC)c1cc(C)c2cc(C(C)C)ccc(C)c1-2` had a TGI greater than 100 µM.

The molecule `C[C@@H](CC(=O)OCc1ccccc1)OC1OC(COC(=O)C(C)(C)C)C(OC(=O)C(C)(C)C)C(OC(=O)C(C)(C)C)C1OC(=O)C(C)(C)C` (stereo partly drawn) had a TGI greater than 100 µM.

With `CC(C)(C)OC(=O)N(CCCCNC(=O)C(F)(F)F)CCCNC(=O)C(F)(F)F`, the TGI was greater than 100 µM.

Turning to `C=C1CC[C@@H](CCC2CCC3(OC2)O[C@]2(O)CC[C@@]3(C)OC2(C)C)C(C)(C)[C@H]1C/C=C1\CCOC1=O` (stereo partly drawn), the TGI is greater than 32.4 µM.

In the next experiment the test system is SK-MEL-2 melanoma. Briefly: growth of human tumour cells (NCI), 48 h.
The molecule `Oc1c(N2CCCCC2)cc(-c2cc(N3CCCCC3)c(O)c3ccccc23)c2ccccc12` gave a TGI of 91.6 µM.

On to `O=c1cc(Nc2cccc(O)c2)[nH]c(=O)[nH]1`, for which the TGI is greater than 100 µM.

For the molecule `NCCOc1cccc(C2(N3CCCCC3)CCCCC2)c1`, the TGI came out at 52.2 µM.

Regarding `COC(=O)[C@@]12OC[C@]34C([C@@H](O)C1O)[C@@]1(C)CC(=O)C(OC(=O)CC(C)C(F)(F)F)=C(C)C1C[C@H]3OC(=O)[C@H](O)[C@H]42` (stereo partly drawn), the TGI was found to be 15.5 µM.

In turn, `CCCCCCCCCCCCCCCCCCNc1ccn(C2OC(COP(=O)(O)OCC3OC(n4ccc(N)nc4=O)C(O)C3O)C(O)C2O)c(=O)n1` (stereo not drawn) had a TGI greater than 100 µM.

Take `CCOc1cnc(C(O)(c2ccccc2)c2ccccc2)o1`: the TGI is greater than 100 µM.

The molecule `CC(=O)c1ccc(Nc2c3c(nc4ccccc24)CCCC3)cc1` returned a TGI greater than 100 µM.

For the molecule `S=C1Cc2c(-c3ccccc3)cc(-c3cccc(Cl)c3)nc2-c2ccccc2N1`, the TGI is 28.4 µM.

Molecule `N#Cc1c(NC(=O)C(F)(F)F)sc2c3c(=O)c4ccccc4c(=O)c=3oc3ccccc3c12` registered a TGI of 54.7 µM.

In the case of `Cc1c(C)c2c(c(N)c1C#N)C(=O)N(Cc1ccc(S(N)(=O)=O)cc1)C2=O`, the TGI is greater than 100 µM.

`CN(NC1=NCCO1)c1ccc2ccccc2c1` had a TGI of 97.2 µM.

In the case of `COC(=O)/C=C/c1ccc(OP(=O)(O)O)c(OC)c1`, the TGI was greater than 100 µM.

With `COc1cc2nc(Cl)nc(NS(=O)(=O)c3cc4ccccc4s3)c2cc1OC`, the TGI is 61.1 µM.

Consider `COC(=O)/C=C(\C(=O)OC)c1cc(C)c2cc(C(C)C)ccc(C)c1-2`, for which the TGI was greater than 100 µM.

Turning to `C[C@@H](CC(=O)OCc1ccccc1)OC1OC(COC(=O)C(C)(C)C)C(OC(=O)C(C)(C)C)C(OC(=O)C(C)(C)C)C1OC(=O)C(C)(C)C` (stereo partly drawn), the TGI is greater than 100 µM.

As for `CC(C)(C)OC(=O)N(CCCCNC(=O)C(F)(F)F)CCCNC(=O)C(F)(F)F`, the TGI is greater than 100 µM.

`C=C1CC[C@@H](CCC2CCC3(OC2)O[C@]2(O)CC[C@@]3(C)OC2(C)C)C(C)(C)[C@H]1C/C=C1\CCOC1=O` (stereo partly drawn) yielded a TGI of 48.3 µM.

The test system of the next experiment is SK-MEL-28 melanoma. Briefly: growth of human tumour cells (NCI), 48 h.
Regarding `Oc1c(N2CCCCC2)cc(-c2cc(N3CCCCC3)c(O)c3ccccc23)c2ccccc12`, the TGI was 40.9 µM.

`O=c1cc(Nc2cccc(O)c2)[nH]c(=O)[nH]1` displayed a TGI greater than 100 µM.

With `NCCOc1cccc(C2(N3CCCCC3)CCCCC2)c1`, the TGI came out at 35.5 µM.

In the case of `COC(=O)[C@@]12OC[C@]34C([C@@H](O)C1O)[C@@]1(C)CC(=O)C(OC(=O)CC(C)C(F)(F)F)=C(C)C1C[C@H]3OC(=O)[C@H](O)[C@H]42` (stereo partly drawn), the TGI is 18.2 µM.

The molecule `CCCCCCCCCCCCCCCCCCNc1ccn(C2OC(COP(=O)(O)OCC3OC(n4ccc(N)nc4=O)C(O)C3O)C(O)C2O)c(=O)n1` (stereo not drawn) showed a TGI greater than 100 µM.

For `CCOc1cnc(C(O)(c2ccccc2)c2ccccc2)o1`, the TGI was greater than 100 µM.

Molecule `CC(=O)c1ccc(Nc2c3c(nc4ccccc24)CCCC3)cc1` gave a TGI greater than 100 µM.

`S=C1Cc2c(-c3ccccc3)cc(-c3cccc(Cl)c3)nc2-c2ccccc2N1`: the TGI was 51.8 µM.

`N#Cc1c(NC(=O)C(F)(F)F)sc2c3c(=O)c4ccccc4c(=O)c=3oc3ccccc3c12`: the TGI was determined as 51.5 µM.

`Cc1c(C)c2c(c(N)c1C#N)C(=O)N(Cc1ccc(S(N)(=O)=O)cc1)C2=O` registered a TGI greater than 100 µM.

In the case of `CN(NC1=NCCO1)c1ccc2ccccc2c1`, the TGI is greater than 100 µM.

In turn, `COC(=O)/C=C/c1ccc(OP(=O)(O)O)c(OC)c1` returned a TGI greater than 100 µM.

In turn, `COc1cc2nc(Cl)nc(NS(=O)(=O)c3cc4ccccc4s3)c2cc1OC` gave a TGI of 0.11 µM.

For the molecule `COC(=O)/C=C(\C(=O)OC)c1cc(C)c2cc(C(C)C)ccc(C)c1-2`, the TGI is greater than 100 µM.

As for `C[C@@H](CC(=O)OCc1ccccc1)OC1OC(COC(=O)C(C)(C)C)C(OC(=O)C(C)(C)C)C(OC(=O)C(C)(C)C)C1OC(=O)C(C)(C)C` (stereo partly drawn), the TGI is greater than 100 µM.

Consider `CC(C)(C)OC(=O)N(CCCCNC(=O)C(F)(F)F)CCCNC(=O)C(F)(F)F`, for which the TGI is greater than 100 µM.

`C=C1CC[C@@H](CCC2CCC3(OC2)O[C@]2(O)CC[C@@]3(C)OC2(C)C)C(C)(C)[C@H]1C/C=C1\CCOC1=O` (stereo partly drawn) returned a TGI greater than 100 µM.
